From patent US11229683B2, “Hematopoietic growth factor proteins and analogs thereof and angiotensin converting enzyme inhibitors for treatment of radiation exposure” (priority 2015, dated 2022)
Like-named read-outs stand apart in the source and are kept apart here. Marks after values point to notes of the source that are not given here.

Key:
8.25 Gy-irradiated mice = settings: cited from earlier work
7.5 Gy-irradiated mice = settings: cited from earlier work
7 Gy-irradiated rats = settings: 7 Gy rats; captopril 0.3 g/L in drinking water from day −7 to Day 0; cited from earlier work
irradiated rats [1] = experiment: Rat 13 Gy leg-out TBI model, renal injury by blood urea nitrogen (BUN); type: in vivo; settings: surviving animals, TC day 1, Lisinopril Day 7 to Day 150
Procedure: Euthanized animals are classified as non-survivors.
Blood urea nitrogen (BUN) measurements were made as a separate measure of kidney damage in surviving animals on Days 90, 120 and 150 (Table 8). BUN measurements are a commonly used measure of kidney function, with higher BUN numbers indicating greater kidney damage. Normal rat BUN measurements for non-irradiated rats are in the 17-22 mg/dL range. Rats were euthanized if BUN measurements were at or above 120 mg/dL.

irradiated rats [2] = experiment: Rat 13 Gy leg-out TBI model, transthoracic echocardiography on day 50, Example 8; type: in vivo
Procedure: Non-irradiated rats (0 Gy) served as controls. On day 50, the rats were anesthetized with isoflurane (2%) and transthoracic echocardiography was performed. Measurements were obtained by an investigator who was blinded to the treatment groups. Animals were studied in the left lateral decubitus position and data was recorded with a Vivid 7 echocardiographic system (General Electric, Waukesha, Wis.).

lethally irradiated rats = settings: 13 Gy leg-out TBI, TC sc day 1, Lisinopril in drinking water Day 7 to Day 150, 12 rats/group
Description: Female WAG/RijCmcr rats were irradiated with 13 Gy at 12 weeks of age when they weighed ˜150-170 gm. Briefly, animals were immobilized in a plexiglass jig to avoid anesthetic. One hind leg was shielded with a one-quarter inch thick lead block. Shielding one leg from radiation exposure is sufficient to prevent death from hematopoietic failure during the following 40 days. […] The x-ray system was operated at 320 kVp and 13 mAs with a half value layer of 1.4 mm Cu. During the irradiation, each rat was confined in a separate chamber in a plastic jig, which allowed irradiation of 2 rats simultaneously. The chambers were placed on a plane perpendicular to the beam direction with distance from source to the midline of rats to be set at 33.5 cm. Collimator jaws were used to define a radiation field large enough to cover both chambers with adequate margin (at least 2 cm). Irradiated rats were given supportive care between days 2 to 14 post-TBI to mitigate acute gastrointestinal injury. This supportive care consisted of sc injections of saline (40 mL/kg/day) from days 3 to 7 post-TBI and the antibiotic enrofloxacin (10 mg/kg/day), given orally in the drinking water from days 2 to 14 post-TBI.
This study comprised four test groups, each consisting of 12 rats (Table 7). Rats received a single sc injection of vehicle solution (10 mM sodium phosphate, 4% mannitol, 1% sucrose pH 6.2) or an HGF triple combination (TC) at 24+4/−0 hr post-irradiation. […] Morbidity and survival of the animals were measured over time. Rats were euthanized if their body condition reached IACUC criteria for euthanasia or if their blood urea nitrogen (BUN) was measured at or above 120 mg/mL, which is an indicator if severe kidney damage. Euthanized animals are classified as non-survivors. Death prior to day 40 in this model typically occurs as a result of hematopoietic failure (H-ARS) or gastrointestinal injury (GI-ARS). Death between days 40 and 90 typically occurs as a result of lung damage, particularly pneumonitis. Death between days 90 and 150 typically occurs as a result of kidney damage (nephropathy). Morbidity at Day 40, 90 and 150 were chosen as representative times for death due to H-ARS, lung damage, and a combination of lung damage and kidney damage, respectively.

8.3 Gy irradiated mice = settings: cited from earlier work; for 48-day survival vs water: 8.3 Gy
plasma ACE activity = biological target: T1, plasma ACE activity (Mus musculus, UniProt P09470); settings: all 3 doses: 10, 30, or 90 mg/kg sc twice per day; cited from earlier work
T1 construct: host or cells: plasma of perindopril-treated mice (endogenous enzyme)
T1 sequence (P09470 35-1237 limits assumed): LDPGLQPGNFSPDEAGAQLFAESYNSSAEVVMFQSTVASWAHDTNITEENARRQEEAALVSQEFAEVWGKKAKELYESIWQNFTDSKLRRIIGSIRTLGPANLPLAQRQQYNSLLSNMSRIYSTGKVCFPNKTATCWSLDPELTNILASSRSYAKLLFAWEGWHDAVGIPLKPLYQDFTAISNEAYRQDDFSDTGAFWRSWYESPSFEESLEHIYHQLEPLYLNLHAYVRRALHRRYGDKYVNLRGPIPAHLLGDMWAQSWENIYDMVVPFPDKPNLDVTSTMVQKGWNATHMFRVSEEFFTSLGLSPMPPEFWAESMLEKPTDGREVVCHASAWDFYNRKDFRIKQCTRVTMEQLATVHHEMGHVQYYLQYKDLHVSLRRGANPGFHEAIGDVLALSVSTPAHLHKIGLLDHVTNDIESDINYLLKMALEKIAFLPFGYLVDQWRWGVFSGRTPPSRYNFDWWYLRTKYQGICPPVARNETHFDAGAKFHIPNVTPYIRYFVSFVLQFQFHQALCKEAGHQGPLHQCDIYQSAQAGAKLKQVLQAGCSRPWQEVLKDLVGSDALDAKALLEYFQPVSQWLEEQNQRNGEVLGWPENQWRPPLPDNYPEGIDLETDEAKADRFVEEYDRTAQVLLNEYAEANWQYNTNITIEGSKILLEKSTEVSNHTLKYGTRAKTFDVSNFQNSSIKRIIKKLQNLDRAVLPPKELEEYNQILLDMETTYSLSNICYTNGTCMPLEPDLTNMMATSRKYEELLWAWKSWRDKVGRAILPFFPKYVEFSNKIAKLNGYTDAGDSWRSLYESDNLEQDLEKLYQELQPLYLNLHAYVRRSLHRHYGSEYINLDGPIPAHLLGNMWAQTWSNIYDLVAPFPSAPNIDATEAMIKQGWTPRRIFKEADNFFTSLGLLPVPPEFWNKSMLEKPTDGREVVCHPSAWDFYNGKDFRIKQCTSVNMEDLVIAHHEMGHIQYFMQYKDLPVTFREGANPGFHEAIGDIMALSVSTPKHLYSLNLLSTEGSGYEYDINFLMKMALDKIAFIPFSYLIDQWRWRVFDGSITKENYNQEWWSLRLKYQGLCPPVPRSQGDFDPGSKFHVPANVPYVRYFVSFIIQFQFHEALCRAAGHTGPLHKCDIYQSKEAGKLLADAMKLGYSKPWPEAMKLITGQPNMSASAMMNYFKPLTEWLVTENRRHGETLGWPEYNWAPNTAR

LD95/30 irradiated mice = experiment: Mouse ARS survival assay, LD95/30 (927 cGy), Example 1; type: in vivo; settings: LD95/30 (927 cGy) TBI, single sc injection 24 h post-irradiation; for % 30-d survival: PEG IL-11 0.3 mg/kg, PEG-G-CSF 1 mg/kg, PEG muGM-CSF 1 mg/kg, 40 mice/group
Procedure: The efficacy of three individual HGFs and all possible combinations of the 3 proteins to increase 30 day survival of lethally irradiated mice was tested at an LD95/30 radiation dose (a dose of radiation expected to cause death to 95% of an exposed population within 30 days). […] Male and female mice (Mus musculus, C57BL/6 strain), aged 10-12 weeks upon study initiation, were used for these studies. There were 40 animals per treatment group, 50% males and 50% females. A dose of radiation equal to the LD95/30 was delivered as a single uniform total body dose (TBD) of gamma radiation from a ^137Cs radiation source (GammaCell 40; Nordion International, Kanata, Ontario, Canada) at an exposure rate of 98.575-100.3±5.01 cGy/minute. Pilot studies determined the LD95/30 dose of radiation to be 927 cGy. […] Each group of mice irradiated together in the same irradiation pie was roughly divided among all groups to ensure that each group received the same irradiation exposure conditions. After irradiation mice were randomized to one of the Test Article or Control Article groups. Mice were provided acidified water (pH 2.0-3.0) in bottles and fed certified commercial extruded laboratory animal chow (HARLAN 2018SXC) throughout the study. On day 4 post-exposure, mice were provided acidified autoclaved water in bottles and also in wetted chow (HARLAN 2018SXC) in a petri dish set in the bottom of the cage. Mice were monitored for survival once per day until signs of early euthanasia appear, then twice per day until day 30. Mice meeting predetermined euthanasia criteria were euthanized.
Complete Blood Cell Counts (CBCs) with differential and peripheral smears were performed at baseline (pre-irradiation) and on days 10, 20, 25, and 30 post-TBI. Two randomly selected mice/group in different cages were bled on day −3 to day −1 prior to TBI for a total of 12 baseline CBCs. Four randomly selected mice/group were bled on days 10, 20, 25, and 30 post-TBI. When possible, the same number of males and females in each group and in separate cages were selected for bleeding. […]

[3] = tested on: LD65/30 irradiated one year old mice; experiment: Mouse ARS survival assay in one year old mice, 10 Gy (LD65/30), Example 4; type: in vivo; settings: single sc injection 24 h post-TBI
Description: One year old mice are a model for geriatric humans, which often respond differently to radiation exposure and drugs. One year old mice were exposed to different doses of radiation to construct a radiation dose response curve. […] The LD50/30 for one year old mice was 959 cGy, compared to 853 cGy for 12 week old mice. […] Other study details were as described in Example 1 and in Plett et al. (Plett, P A, et al. (2012) Establishing a murine model of the Hematopoietic Syndrome of the Acute Radiation Syndrome. Health Physics 103: 343-355; Plett, P. A., et al. (2014) PEGylated G-CSF (BBT-015), GM-CSF (BBT-007), and IL-11 (BBT-059) analogs enhance survival and hematopoietic cell recovery in a mouse model of the Hematopoietic Syndrome of the Acute Radiation Syndrome. Health Physics Journal 106: 7-20). Mice received one sc injection of the individual test proteins or all possible combinations of the test proteins 24+4/−0 hours post-TBI. Doses of the drugs administered were 1 mg/kg for PEG-G-CSF, 1 mg/kg for PEG-murine GM-CSF, and 0.3 mg/kg for PEG-IL-11.

irradiated mice = experiment: Mouse ARS survival assay, PEG-muGM-CSF, 853 or 872 cGy, Example 5; type: in vivo; settings: for % 30-d survival: listed as PEG-muGM-CSF, 1 mg/kg; for # survivors/total mice: 30 days
Procedure: At the higher 872 cGy radiation dose, 70% of mice treated once with PEG-muGM-CSF at 24 h post-TBI were still alive at 30 days, compared to 10% of vehicle-treated mice.

LD65/30 irradiated mice = experiment: Mouse ARS survival assay, LD65/30 (872 cGy), Example 10; type: in vivo; settings: single sc injection 24 h post-irradiation
Procedure: The efficacy of three individual HGFs and all possible combinations of the 3 proteins to increase 30 day survival of lethally irradiated mice was tested at an LD65/30 radiation dose (a dose of radiation expected to cause death to 65% of an exposed population within 30 days). This experiment was performed as described in Example 1 except that the radiation dose used was 872 cGy and there were 20 mice per test group (10 males/10 females). The three HGFs were the same ones used in Example 1.

lethally irradiated mice = settings: single sc injection; cited from earlier work
[4] = Lisinopril Day 7 to Day 50, mean ± SD, 8 rats
[5] = sc 30 mg/kg twice per day for 4 days starting 48 hours before irradiation
[6] = 853 cGy, 1 mg/kg single sc at 24 h post-TBI
[7] = 872 cGy, 1 mg/kg single sc at 24 h post-TBI

C[C@H](CS)C(=O)N1CCC[C@H]1C(=O)O [Captopril]
30-day survival (8.25 Gy-irradiated mice; captopril 0.55 g/L in drinking water from day 1 to day 30 post-TBI, genestein (if given) 200 mg/kg sc 24 h pre-TBI): 45%
30-day survival (8.25 Gy-irradiated mice; captopril from day 0 (1 h post-TBI) to day 30, genestein (if given) 200 mg/kg sc 24 h pre-TBI): 55%
30-day survival (7.5 Gy-irradiated mice; captopril 0.55 g/L in drinking water from day −7 until Day 0): 0%
30-day survival (7.5 Gy-irradiated mice; captopril from day 0 (1 hour post-TBI) until Day 30 post-TBI): 100%
30-day survival (7.5 Gy-irradiated mice; captopril from day 1 (24 h) post-TBI until Day 7 post-TBI): 85%
30-day survival (7.5 Gy-irradiated mice; captopril from day −7 prior to TBI until Day 30 post-TBI): 15%
30-day survival (7 Gy-irradiated rats): 24%

NCCCC[C@H](N[C@@H](CCc1ccccc1)C(=O)O)C(=O)N1CCC[C@H]1C(=O)O [Lisinopril]
BUN Day 120, median (20th-80th percentile) (irradiated rats [1]): 23 (20-24) * mg/dL
BUN Day 150, median (20th-80th percentile) (irradiated rats [1]): 25 (22-27) ** mg/dL
Cardiac Output (irradiated rats [2]; [4]): 170.1 ± 36.4 mL/min
End Systolic Volume (irradiated rats [2]; [4]): 0.125 ± 0.04 mL
End-Diastolic Volume (irradiated rats [2]; [4]): 0.585 ± 0.08 mL
Left Ventricle Internal Diameter systole (irradiated rats [2]; [4]): 0.364 ± 0.03 cm
Left Ventricle Mass (irradiated rats [2]; [4]): 0.919 ± 0.04 grams
Left Ventricle Posterior Wall diastole (irradiated rats [2]; [4]): 0.109 ± 0.01 cm
Left Ventricular Internal Dimension (diastole) (irradiated rats [2]; [4]): 0.57 ± 0.17 cm
Stroke volume (irradiated rats [2]; [4]): 0.460 ± 0.06 mL
radiation-induced changes to heart parameters (irradiated rats [2]; Lisinopril on days 7 to 50): prevented or reduced radiation-induced changes
Survival (%) Day 40 (lethally irradiated rats): 100%
Survival (%) Day 150 (lethally irradiated rats): 92%
Survival (%) Day 90 (lethally irradiated rats; listed as Vehicle + Lisinopril): 92%
Survival (%) Day 90 (lethally irradiated rats; listed as Vehicle plus Lisinopril): 100%

CCC[C@H](N[C@@H](C)C(=O)N1[C@H](C(=O)O)C[C@@H]2CCCC[C@@H]21)C(=O)OCC [perindopril]
48-day survival vs water (8.3 Gy irradiated mice; sc 10 mg/kg twice per day for 4 days starting 48 hours before irradiation): did not significantly improve
48-day survival vs water (8.3 Gy irradiated mice; [5]): did significantly improve survival
48-day survival vs water (8.3 Gy irradiated mice; sc 90 mg/kg twice per day for 4 days starting 48 hours before irradiation): did significantly improve survival
30-day survival versus water (8.3 Gy irradiated mice; [5]): improved 30-day survival
inhibition of plasma ACE activity (plasma ACE activity): 100%

B1: PEG GM-CSF: the murine BBT-007 GM-CSF homolog T3C modified with a 40 kDa-PEG (protein, UniProt P01587 18-141, looked up, variant T3C)
Granulocyte-macrophage …: APCRSPITVTRPWKHVEAIKEALNLLDDMPVTLNEEVEVVSNEFSFKKLTCVQTRLKIFEQGLRGNFTKLKGALNMTASYYQTYCPPTPETDCETQVTTYADFIDSLKTFLTDIPFECKKPGQK
modifications: 40 kDa PEG
notes: the murine BBT-007 GM-CSF homolog T3C modified with a 40 kDa-PEG
# survivors/total mice (LD95/30 irradiated mice; 30 days): 13/40
% 30-d survival (LD95/30 irradiated mice): 32.5%
% 30-d survival (LD95/30 irradiated mice; listed as PEG-GM-CSF): 33%
# survivors/total mice ([3]; 30 days): 11/20
% 30-d survival ([3]; PEG IL-11 0.3 mg/kg, PEG-G-CSF 1 mg/kg, PEG muGM-CSF 1 mg/kg): 55%
% of mice that survived 30 days, pooled data from the two radiation doses (irradiated mice; 853 and 872 cGy pooled, 1 mg/kg single sc at 24 h post-TBI): 77.5%
% 30-d survival (irradiated mice; [6]): 85%
% 30-d survival (irradiated mice; [7]): 70%
# survivors/total mice (irradiated mice; [6]): 17/20
# survivors/total mice (irradiated mice; [7]): 14/20
hematopoietic recovery (CBC) vs vehicle (irradiated mice; day 20 post-TBI, 853 and 872 cGy): accelerated hematopoietic recovery
# survivors/total mice (LD65/30 irradiated mice; 30 days): 14/20
% 30-d survival (LD65/30 irradiated mice; PEG IL-11 0.3 mg/kg, PEG-G-CSF 1 mg/kg, PEG muGM-CSF 1 mg/kg, 20 mice/group): 70%

B2: muGM-CSF: non-long-acting murine GM-CSF (protein, UniProt P01587 18-141, looked up)
Granulocyte-macrophage …: APTRSPITVTRPWKHVEAIKEALNLLDDMPVTLNEEVEVVSNEFSFKKLTCVQTRLKIFEQGLRGNFTKLKGALNMTASYYQTYCPPTPETDCETQVTTYADFIDSLKTFLTDIPFECKKPGQK
30-day survival of lethally irradiated mice (lethally irradiated mice): does not improve 30-day survival
